Source: ChEMBL document CHEMBL1151499, “Synthesis of a piperidinomethylthiophene derivative as H2-antagonist with inhibitory activity against Helicobacter pylori” (Bioorg Med Chem Lett, 1996)
pIC50: −log10 of the molar value. Values after ≈ are worked out from the molar mass of the structure shown.

Tests used:
Type in all cases: functional
[1] = system: Helicobacter pylori; experiment: Compound was tested for inhibitory activity against Helicobacter pylori No. 9470
[2] = biological target: Histamine H2 receptor (Cavia porcellus, UniProt P47747); experiment: Histamine H2 receptor antagonistic activity
Chain of Histamine H2 receptor (P47747 whole entry): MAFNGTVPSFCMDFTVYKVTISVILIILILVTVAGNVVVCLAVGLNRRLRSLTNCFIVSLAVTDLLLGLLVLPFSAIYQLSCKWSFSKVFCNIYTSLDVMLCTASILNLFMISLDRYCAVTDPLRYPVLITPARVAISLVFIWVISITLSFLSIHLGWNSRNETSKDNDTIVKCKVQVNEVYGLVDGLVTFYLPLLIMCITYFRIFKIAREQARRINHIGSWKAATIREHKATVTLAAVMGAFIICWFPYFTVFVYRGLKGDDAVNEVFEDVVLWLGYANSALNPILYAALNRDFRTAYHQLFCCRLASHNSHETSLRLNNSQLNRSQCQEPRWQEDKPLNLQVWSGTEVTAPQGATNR

[3] = biological target: Histamine H2 receptor (Cavia porcellus) (UniProt P47747); experiment: Compound was tested for Histamine H2 receptor antagonistic activity at 10 ug/ml
Chain of Histamine H2 receptor (Cavia porcellus) (P47747 whole entry): as above

Structure (SMILES)	MIC [1]	pIC50 [2]	inhibition [3]
O=c1c(NC/C=C\COc2csc(CN3CCCCC3)c2)c(NCCF)c1=O	1.56 µg/mL (≈ 3.83 µM)	5.98	
C/N=c1\c(O)c(O)\c1=N/C/C=C\COc1csc(CN2CCCCC2)c1	12.5 µg/mL (≈ 33.3 µM)	5.74	
CN(C)CC/N=c1\c(O)c(O)\c1=N/C/C=C\COc1csc(CN2CCCCC2)c1	> 100 µg/mL	6.09	
CN/C(=N\CCSCc1nc[nH]c1C)NC#N [CIMETIDINE]	> 100 µg/mL		
O=c1c(NC/C=C\COc2csc(CN3CCCCC3)c2)c(NCC(F)(F)C(F)(F)F)c1=O	25 µg/mL (≈ 50.7 µM)		43%
CC(C)/N=c1\c(O)c(O)\c1=N/C/C=C\COc1csc(CN2CCCCC2)c1	12.5 µg/mL (≈ 31 µM)	5.71	
CC(=O)OCC(=O)NCCCOc1cccc(CN2CCCCC2)c1 [ROXATIDINE ACETATE]	> 100 µg/mL	5.39	
CN/C(=C/[N+](=O)[O-])NCCSCc1ccc(CN(C)C)o1 [RANITIDINE]	> 100 µg/mL	5.48	
O=c1c(NC/C=C\COc2csc(CN3CCCCC3)c2)c(NCC(F)(F)C(F)(F)C(F)(F)F)c1=O	6.25 µg/mL (≈ 11.5 µM)		39%
C=CCNc1c(NC/C=C\COc2csc(CN3CCCCC3)c2)c(=O)c1=O	> 100 µg/mL	5.90	
N#CCCNc1c(NC/C=C\COc2csc(CN3CCCCC3)c2)c(=O)c1=O	25 µg/mL (≈ 60.3 µM)	6.13	
COCC/N=c1\c(O)c(O)\c1=N/C/C=C\COc1csc(CN2CCCCC2)c1	> 100 µg/mL	5.94	
Nc1c(NC/C=C\COc2csc(CN3CCCCC3)c2)c(=O)c1=O	100 µg/mL (≈ 277 µM)	6.35	
CN(C)Cc1cc(OC/C=C\C/N=c2\c(O)c(O)c2=N)cs1	100 µg/mL (≈ 311 µM)	6.16	
